{"source": "ChEMBL document CHEMBL3885881", "about": "“DrugMatrix”", "organism": "Rattus norvegicus", "experiment": "DrugMatrix - Regimen: Daily Repeat", "assay_type": "toxicity, organism-based, Sprague-Dawley", "set-up": "regimen Daily Repeat, gender Male, age 6-8 weeks", "settings": "in vivo, po, 1100 mg/kg, route oral GAVAGE, dose level High, vehicle 100 % WATER; for ABSOLUTE BASOPHIL / ABSOLUTE EOSINOPHIL / ABSOLUTE LYMPHOCYTE / ABSOLUTE MONOCYTE / ABSOLUTE SEGMENTED NEUTROPHIL / BASOPHIL / EOSINOPHIL / ERYTHROCYTE COUNT / HEMATOCRIT / HEMOGLOBIN / LEUKOCYTE COUNT / LYMPHOCYTE / MEAN CORPUSCULAR HEMOGLOBIN / MEAN CORPUSCULAR HEMOGLOBIN CONCENTRATION / MEAN CORPUSCULAR VOLUME / MONOCYTE / NEUTROPHIL / NUCLEATED RED BLOOD CELLS / PLATELET COUNT: tissue Blood; for ALANINE AMINOTRANSFERASE / ALBUMIN / ALKALINE PHOSPHATASE / ASPARTATE AMINOTRANSFERASE / BLOOD UREA NITROGEN / CARBON DIOXIDE / CHLORIDE / CHOLESTEROL / CREATINE PHOSPHOKINASE / CREATININE / GLUCOSE / LACTATE DEHYDROGENASE / LIPASE / PHOSPHORUS / POTASSIUM / SODIUM / TOTAL BILIRUBIN / TOTAL PROTEIN / URIC ACID: tissue Plasma", "data": [{"smiles": "O=C(O)CCNC(=O)c1ccc(/N=N/c2ccc(O)c(C(=O)O)c2)cc1", "note": "[BALSALAZIDE]", "values": [{"measurement": "ABSOLUTE BASOPHIL", "setting": "72 h, time 3 day", "value": 0, "unit": "CELLS/uL"}, {"measurement": "ABSOLUTE EOSINOPHIL", "setting": "72 h, time 3 day", "value": 0, "unit": "CELLS/uL"}, {"measurement": "ABSOLUTE LYMPHOCYTE", "setting": "72 h, time 3 day", "value": 7596, "unit": "CELLS/uL"}, {"measurement": "ABSOLUTE MONOCYTE", "setting": "72 h, time 3 day", "value": 55, "unit": "CELLS/uL"}, {"measurement": "ABSOLUTE SEGMENTED NEUTROPHIL", "setting": "72 h, time 3 day", "value": 682.33, "unit": "CELLS/uL"}, {"measurement": "BASOPHIL", "setting": "72 h, time 3 day", "value": 0, "unit": "%"}, {"measurement": "EOSINOPHIL", "setting": "72 h, time 3 day", "value": 0, "unit": "%"}, {"measurement": "ERYTHROCYTE COUNT", "setting": "72 h, time 3 day", "value": 5.29, "unit": "x10E6/uL"}, {"measurement": "HEMATOCRIT", "setting": "72 h, time 3 day", "value": 33.57, "unit": "%"}, {"measurement": "HEMOGLOBIN", "setting": "72 h, time 3 day", "value": 13.27, "unit": "G/DL"}, {"measurement": "LEUKOCYTE COUNT", "setting": "72 h, time 3 day", "value": 8.33, "unit": "x10E3/uL"}, {"measurement": "LYMPHOCYTE", "setting": "72 h, time 3 day", "value": 91.33, "unit": "%"}, {"measurement": "MEAN CORPUSCULAR HEMOGLOBIN", "setting": "72 h, time 3 day", "value": 25.13, "unit": "pg"}, {"measurement": "MEAN CORPUSCULAR HEMOGLOBIN CONCENTRATION", "setting": "72 h, time 3 day", "value": 39.5, "unit": "G/DL"}, {"measurement": "MEAN CORPUSCULAR VOLUME", "setting": "72 h, time 3 day", "value": 63.47, "unit": "fL"}, {"measurement": "MONOCYTE", "setting": "72 h, time 3 day", "value": 0.67, "unit": "%"}, {"measurement": "NEUTROPHIL", "setting": "72 h, time 3 day", "value": 8, "unit": "%"}, {"measurement": "NUCLEATED RED BLOOD CELLS", "setting": "72 h, time 3 day", "value": "0 /100WBC"}, {"measurement": "PLATELET COUNT", "setting": "72 h, time 3 day", "value": 833.67, "unit": "x10E3/uL"}, {"measurement": "ALANINE AMINOTRANSFERASE", "setting": "72 h, time 3 day", "value": 62.67, "unit": "u/L"}, {"measurement": "ALBUMIN", "setting": "72 h, time 3 day", "value": 4.33, "unit": "G/DL"}, {"measurement": "ALKALINE PHOSPHATASE", "setting": "72 h, time 3 day", "value": 344.33, "unit": "u/L"}, {"measurement": "ASPARTATE AMINOTRANSFERASE", "setting": "72 h, time 3 day", "value": 98.67, "unit": "u/L"}, {"measurement": "BLOOD UREA NITROGEN", "setting": "72 h, time 3 day", "value": 15, "unit": "mg/dL"}, {"measurement": "CARBON DIOXIDE", "setting": "72 h, time 3 day", "value": 32.67, "unit": "mmol/L"}, {"measurement": "CHLORIDE", "setting": "72 h, time 3 day", "value": 101.67, "unit": "MEQ/L"}, {"measurement": "CHOLESTEROL", "setting": "72 h, time 3 day", "value": 84.33, "unit": "mg/dL"}, {"measurement": "CREATINE PHOSPHOKINASE", "setting": "72 h, time 3 day", "value": 333, "unit": "u/L"}, {"measurement": "CREATININE", "setting": "72 h, time 3 day", "value": 0.49, "unit": "mg/dL"}, {"measurement": "GLUCOSE", "setting": "72 h, time 3 day", "value": 160.33, "unit": "mg/dL"}, {"measurement": "LACTATE DEHYDROGENASE", "setting": "72 h, time 3 day", "value": 159, "unit": "u/L"}, {"measurement": "LIPASE", "setting": "72 h, time 3 day", "value": 12, "unit": "u/L"}, {"measurement": "PHOSPHORUS", "setting": "72 h, time 3 day", "value": 11.9, "unit": "mg/dL"}, {"measurement": "POTASSIUM", "setting": "72 h, time 3 day", "value": 5.97, "unit": "MEQ/L"}, {"measurement": "SODIUM", "setting": "72 h, time 3 day", "value": 145.53, "unit": "MEQ/L"}, {"measurement": "TOTAL BILIRUBIN", "setting": "72 h, time 3 day", "value": 0.27, "unit": "mg/dL"}, {"measurement": "TOTAL PROTEIN", "setting": "72 h, time 3 day", "value": 6.1, "unit": "G/DL"}, {"measurement": "URIC ACID", "setting": "72 h, time 3 day", "value": 0.67, "unit": "mg/dL"}, {"measurement": "ABSOLUTE BASOPHIL", "setting": "120 h, time 5 day", "value": 0, "unit": "CELLS/uL"}, {"measurement": "ABSOLUTE EOSINOPHIL", "setting": "120 h, time 5 day", "value": 0, "unit": "CELLS/uL"}, {"measurement": "ABSOLUTE LYMPHOCYTE", "setting": "120 h, time 5 day", "value": 12609, "unit": "CELLS/uL"}, {"measurement": "ABSOLUTE MONOCYTE", "setting": "120 h, time 5 day", "value": 37.67, "unit": "CELLS/uL"}, {"measurement": "ABSOLUTE SEGMENTED NEUTROPHIL", "setting": "120 h, time 5 day", "value": 1253.33, "unit": "CELLS/uL"}, {"measurement": "BASOPHIL", "setting": "120 h, time 5 day", "value": 0, "unit": "%"}, {"measurement": "EOSINOPHIL", "setting": "120 h, time 5 day", "value": 0, "unit": "%"}, {"measurement": "ERYTHROCYTE COUNT", "setting": "120 h, time 5 day", "value": 5.68, "unit": "x10E6/uL"}, {"measurement": "HEMATOCRIT", "setting": "120 h, time 5 day", "value": 35.73, "unit": "%"}, {"measurement": "HEMOGLOBIN", "setting": "120 h, time 5 day", "value": 14.1, "unit": "G/DL"}, {"measurement": "LEUKOCYTE COUNT", "setting": "120 h, time 5 day", "value": 13.9, "unit": "x10E3/uL"}, {"measurement": "LYMPHOCYTE", "setting": "120 h, time 5 day", "value": 91.33, "unit": "%"}, {"measurement": "MEAN CORPUSCULAR HEMOGLOBIN", "setting": "120 h, time 5 day", "value": 24.87, "unit": "pg"}, {"measurement": "MEAN CORPUSCULAR HEMOGLOBIN CONCENTRATION", "setting": "120 h, time 5 day", "value": 39.47, "unit": "G/DL"}, {"measurement": "MEAN CORPUSCULAR VOLUME", "setting": "120 h, time 5 day", "value": 62.93, "unit": "fL"}, {"measurement": "MONOCYTE", "setting": "120 h, time 5 day", "value": 0.33, "unit": "%"}, {"measurement": "NEUTROPHIL", "setting": "120 h, time 5 day", "value": 8.33, "unit": "%"}, {"measurement": "NUCLEATED RED BLOOD CELLS", "setting": "120 h, time 5 day", "value": "0 /100WBC"}, {"measurement": "PLATELET COUNT", "setting": "120 h, time 5 day", "value": 1338, "unit": "x10E3/uL"}, {"measurement": "ALANINE AMINOTRANSFERASE", "setting": "120 h, time 5 day", "value": 55.33, "unit": "u/L"}, {"measurement": "ALBUMIN", "setting": "120 h, time 5 day", "value": 4, "unit": "G/DL"}, {"measurement": "ALKALINE PHOSPHATASE", "setting": "120 h, time 5 day", "value": 346.67, "unit": "u/L"}, {"measurement": "ASPARTATE AMINOTRANSFERASE", "setting": "120 h, time 5 day", "value": 106, "unit": "u/L"}, {"measurement": "BLOOD UREA NITROGEN", "setting": "120 h, time 5 day", "value": 17.67, "unit": "mg/dL"}, {"measurement": "CARBON DIOXIDE", "setting": "120 h, time 5 day", "value": 27, "unit": "mmol/L"}, {"measurement": "CHLORIDE", "setting": "120 h, time 5 day", "value": 104, "unit": "MEQ/L"}, {"measurement": "CHOLESTEROL", "setting": "120 h, time 5 day", "value": 55.33, "unit": "mg/dL"}, {"measurement": "CREATINE PHOSPHOKINASE", "setting": "120 h, time 5 day", "value": 414, "unit": "u/L"}, {"measurement": "CREATININE", "setting": "120 h, time 5 day", "value": 0.14, "unit": "mg/dL"}, {"measurement": "GLUCOSE", "setting": "120 h, time 5 day", "value": 163.67, "unit": "mg/dL"}, {"measurement": "LACTATE DEHYDROGENASE", "setting": "120 h, time 5 day", "value": 452.33, "unit": "u/L"}, {"measurement": "LIPASE", "setting": "120 h, time 5 day", "value": 10, "unit": "u/L"}, {"measurement": "PHOSPHORUS", "setting": "120 h, time 5 day", "value": 12.77, "unit": "mg/dL"}, {"measurement": "POTASSIUM", "setting": "120 h, time 5 day", "value": 6.29, "unit": "MEQ/L"}, {"measurement": "SODIUM", "setting": "120 h, time 5 day", "value": 144.53, "unit": "MEQ/L"}, {"measurement": "TOTAL BILIRUBIN", "setting": "120 h, time 5 day", "value": 0.17, "unit": "mg/dL"}, {"measurement": "TOTAL PROTEIN", "setting": "120 h, time 5 day", "value": 5.57, "unit": "G/DL"}, {"measurement": "URIC ACID", "setting": "120 h, time 5 day", "value": 1.53, "unit": "mg/dL"}]}]}
